This is an account of results in patent US8940774B2, “Tris-Quaternary Ammonium Salts and Methods for Modulating Neuronal Nicotinic Acetylcholine Receptors” (University of Kentucky Research Foundation, priority 2005, dated 2015).

As a reminder, the inhibition is the change of the read-out against control, counted positive when it falls.

The target of assay [1] is T1, Rat Striatal Nicotinic Receptors (Rattus norvegicus, UniProt P09483+P12390).
T1 construct: from tissue; host or cells: rat striatal membranes
In words: Inhibition of [3H]Nicotine (NIC) binding assay, rat striatal membranes. The note with it: % inhibition at 100 nM concentration of analog, 3 nM [3H]NIC. The procedure:
Striata from two rats were dissected, pooled, and homogenized with a Tekmar polytron in 10 vol of ice-cold modified Krebs-HEPES buffer (20 mM HEPES, 118 mM NaCl, 4.8 mM, KCl, 2.5 mM CaCl2, 1.2 mM MgSO4, adjusted to pH 7.5). The homogenates were incubated at 37° C. for 5 minutes and centrifuged at 15,000 g for 20 minutes. The pellet was resuspended in 10 volumes of ice-cold MilliQ water, incubated for 5 minutes at 37° C., and centrifuged at 15,000 g for 20 minutes. The second pellet was then resuspended in 10 volumes of fresh ice-cold 10% Krebs-HEPES buffer, incubated at 37° C., and centrifuged at 15,000 g for 20 minutes. The latter sequence of resuspension, incubation and centrifugation was repeated. The pellet was frozen under fresh 10% Krebs-HEPES buffer and stored at −40° C. until assay. Upon assay, the pellet was resuspended in Krebs-HEPES buffer, incubated at 37° C. for 5 minutes, and centrifuged at 15,000 g for 20 minutes. The final pellet was resuspended in 3.6 mL ice-cold MilliQ water which provided for approximately 200 μg protein per 100 μL aliquot. Competition assays were performed in duplicate in a final volume of 200 μL Krebs-HEPES buffer containing […] Tris buffer (pH 7.5 at 4° C.). Reactions were initiated by addition of 100 μL of membrane suspension to 3 nM [^3H]NIC (50 μL) and one of at least nine concentrations of analog (50 μL). After a 90 minute incubation at 4° C., reactions were terminated by dilution of the samples with 3 mL of ice-cold Krebs-HEPES buffer followed immediately by filtration through Whatman GF/B glass fiber filters (presoaked in 0.5% polyethyleneimine) using a Brandel Cell Harvester. Filters were rinsed three times with 3 mL of ice-cold Krebs-HEPES buffer, transferred to scintillation vials, and 5 mL scintillation cocktail (Research Products international Corp., Mt. Prospect, Ill.) added. Nonspecific binding determined in triplicate was defined as binding in the presence of 10 μM NIC. Binding parameters were determined using the weighted, least squares non-linear regression. The tris-quaternary ammonium salts were evaluated for their ability to displace [^3H]NIC binding from rat striatal membranes.
(§1) Data are % inhibition at 100 nM concentration of analog for at least 1-3 independent experiments. Specific binding in the [^3H]NIC binding assay is calculated at the difference between the total binding of [^3H]NIC and nonspecific binding in the presence of 10 μM cold nicotine. Specific binding for the [^3H]MLA binding assay is calculated as the difference between the total binding of 2.5 nM [^3H]MLA to the receptors alone and its nonspecific binding in the presence of 1 μM cold MLA. Analog-induced inhibition of nicotine-evoked [^3H]DA release is calculated as a percent of that in the absence of analog.

The target of assay [2] is T2, α7-type neuronal nicotinic acetylcholine receptors (Rattus norvegicus, UniProt Q05941).
T2 construct: from tissue; host or cells: rat brain membranes (whole brain without cortex, striatum and cerebellum)
In words: Inhibition of [3H]Methyllycaconitine (MLA) binding assay, rat brain membranes. The note with it: % inhibition at 100 nM concentration of analog; rat brain membranes; 2.5 nM [3H]MLA; read-out: Inhibition of [3H]MLA binding. The procedure: Rat brain was dissected into the whole brain tissue without cortex, striatum and cerebellum and was frozen in liquid nitrogen and stored at −70° C. until use. The brain tissue was homogenized with a Tekmar Polytron (setting 40) in 20 volumes of ice-cold hypotonic buffer (2 mM HEPES, 14.4 mM NaCl, 0.15 mM KCl, 0.2 mM CaCl2 and 0.1 mM MgSO4, pH=7.5). The homogenate was incubated at 37° C. for 10 minutes and centrifuged at 25,000 g for 15 minutes at […] The pellet was washed 3 times more by resuspension in 20 volumes of the same buffer and centrifugation at the above parameters. The final pellet was stored at −20° C. under 4.6 mL of the incubation buffer and was suspended just before the incubation with radioligand.
The binding of [^3H]MLA to probe α7-type neuronal nicotinic acetylcholine receptors was measured using a modification of the method of Davies at al., “Characterisation of the binding of [^3H]methyllycaconitine (MLA): a radioligand for labelling α7-type neuronal nicotinic acetylcholine receptors,” Neuropharmacology, 38, 679-690 (1999). [^3H]MLA (25.4 Ci/mmol) was purchased from Tocris Cookson Ltd., Bristol, U.K. Binding was performed in duplicate, in a final volume of 250 μL of the incubation medium, containing 20 mM HEPES, 144 mM NaCl, 1.5 mM KCl, 2 mM CaCl2, 1 mM MgSO4 and 0.05% BSA, pH=7.5. Reaction was initiated by the addition of 100 μL of membrane suspension to the samples containing a desired concentration of test compounds and […] [^3H]MLA (final concentration) and incubated for 2 hours it room temperature. Total binding was measured in the absence of unlabelled ligand, and nonspecific binding was determined by the presence of 1 μM unlabelled MLA. The binding reaction was terminated by dilution of samples with 3 mL of ice-cold incubation buffer followed by immediate filtration through glass fiber filters (S&S, grade #32, presoaked in 0.5% polyethylenimine) using a Brandel harvester system. Filters were rinsed three times with 3 mL of ice-cold buffer, transferred to scintillation vials and 4 mL of scintillation cocktail was added. Protein was measured using the Bradford dye-binding procedure with bovine serum albumin as the standard.
The tris-quaternary ammonium salts were evaluated for their ability to displace [^3H]MLA binding from rat brain membranes.
as §1

Assay [3] concerns NIC-evoked [3H]DA release from rat striatal slices. As to the kind of experiment: Nicotine-evoked [3H]dopamine release assay, superfused rat striatal slices. The format is cell-based. To be noted: 100 nM analog superfused 60 minutes prior to NIC (10 μM), percent of that in the absence of analog. The procedure:
Rat striatal slices (500 μm thickness, 6-8 mg wet weight) were incubated for 30 minutes in Krebs buffer (118 mM NaCl, 4.7 mM KCl, 1.2 mM MgCl2, 1.0 mM NaH2PO4, 1.3 mM CaCl2, 11.1 mM glucose, 25 mM NaHCO3, 0.11 mM L-ascorbic acid and 0.004 mM disodium EDTA; pH 7.4, and saturated with 95% O2/5% CO2) in a metabolic shaker at 34° C. Slices were rinsed with 15 mL of fresh buffer and incubated for an additional 30 minutes in fresh buffer containing 0.1 μM [^3H]dopamine (DA; 6 slices/3 mL). Subsequently, slices were rinsed with 15 mL of fresh buffer and transferred to a glass superfusion chamber. Slices were superfused (1.0 mL/min) for 60 minutes with Krebs buffer containing nomifensine (10 μM) and pargyline (10 μM) and maintained at 34° C., pH 7.4 with continual aeration (95% O2/5% CO2). Two five minute samples (5 mL each) were collected to determine basal outflow of [^3H]DA. Analogs were added to the superfusion buffer after the collection of the second sample and remained in the buffer until 12 consecutive five minute samples were collected. Subsequently, S-(−)-nicotine (10 μM) was added to the buffer and an additional 12 consecutive five minute samples were collected. At the end of the experiment, each slice was solubilized and the [^3H] content of the tissue determined.
Radioactivity in the superfusate and tissue samples were determined by liquid scintillation spectroscopy. Fractional release for tritium collected in each sample was divided by the total tritium present at the time of sample collection and was expressed as a percentage of total tritium. Basal [^3H] outflow was calculated from the average of the tritium collected in the two five-minute samples just before addition of the analog. The sum of the increase in collected tritium resulting from either exposure to the test compound or exposure to S-(−)-nicotine in the absence cod presence of the test compound equaled total [^3H] overflow. [^3H] Overflow was calculated by subtracting the [^3H] outflow during an equivalent period of prestimulation from the values in samples collected during and after drug exposure. Inasmuch as the radiolabelled compounds were not separated and identified, the tritium in the superfusate is referred to as either [^3H] outflow or [^3H] overflow, rather than [^3H]DA. [^3H] Overflow primarily represents [^3H]DA in the presence of nomifesine and pargyline in the superfusion buffer. […]
Analogs were also evaluated for their ability to inhibit NIC evoked [^3H]DA release. In these experiments, the striatal slices were superfused for 60 minutes with 100 nM concentration of the analogs prior to NIC (10 μM) exposure. Antagonist activity was evaluated by comparing the NIC-evoked [^3H] overflow in the absence and presence of the analogs. The relative order of potency of the analogs for inhibition of NIC-evoked [^3H]DA release from rat striatal slices is illustrated in Table 1.
as §1

T2 sequence (Q05941 23-502): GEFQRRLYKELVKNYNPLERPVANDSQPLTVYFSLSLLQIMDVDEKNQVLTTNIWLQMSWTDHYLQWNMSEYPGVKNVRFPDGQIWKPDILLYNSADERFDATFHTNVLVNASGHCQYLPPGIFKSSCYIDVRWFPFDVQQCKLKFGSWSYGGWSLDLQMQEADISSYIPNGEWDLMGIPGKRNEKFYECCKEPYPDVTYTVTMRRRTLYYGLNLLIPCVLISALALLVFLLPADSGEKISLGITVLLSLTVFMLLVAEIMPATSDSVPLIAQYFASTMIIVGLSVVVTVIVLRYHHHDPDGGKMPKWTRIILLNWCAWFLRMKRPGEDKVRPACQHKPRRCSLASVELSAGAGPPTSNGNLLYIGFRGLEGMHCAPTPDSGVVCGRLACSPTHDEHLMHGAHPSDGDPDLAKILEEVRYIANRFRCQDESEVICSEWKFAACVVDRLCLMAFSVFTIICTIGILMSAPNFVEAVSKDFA
T1 sequence (P09483 31-630): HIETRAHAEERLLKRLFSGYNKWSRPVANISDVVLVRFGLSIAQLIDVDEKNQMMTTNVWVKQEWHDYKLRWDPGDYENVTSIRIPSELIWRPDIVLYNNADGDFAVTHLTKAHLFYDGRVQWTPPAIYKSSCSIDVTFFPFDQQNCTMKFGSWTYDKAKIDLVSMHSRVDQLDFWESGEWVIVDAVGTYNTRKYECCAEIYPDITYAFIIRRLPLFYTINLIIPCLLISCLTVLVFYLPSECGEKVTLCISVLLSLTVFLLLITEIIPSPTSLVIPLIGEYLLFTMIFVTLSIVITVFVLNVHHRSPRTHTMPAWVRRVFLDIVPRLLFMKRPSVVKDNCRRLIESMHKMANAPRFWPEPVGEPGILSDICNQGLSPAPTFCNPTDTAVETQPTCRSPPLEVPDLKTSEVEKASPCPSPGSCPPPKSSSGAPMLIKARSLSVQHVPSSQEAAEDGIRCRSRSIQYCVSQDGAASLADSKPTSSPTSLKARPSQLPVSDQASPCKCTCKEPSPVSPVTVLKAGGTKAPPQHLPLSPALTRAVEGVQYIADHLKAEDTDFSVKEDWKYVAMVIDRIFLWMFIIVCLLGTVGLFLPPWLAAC
T1 sequence (P12390 25-500): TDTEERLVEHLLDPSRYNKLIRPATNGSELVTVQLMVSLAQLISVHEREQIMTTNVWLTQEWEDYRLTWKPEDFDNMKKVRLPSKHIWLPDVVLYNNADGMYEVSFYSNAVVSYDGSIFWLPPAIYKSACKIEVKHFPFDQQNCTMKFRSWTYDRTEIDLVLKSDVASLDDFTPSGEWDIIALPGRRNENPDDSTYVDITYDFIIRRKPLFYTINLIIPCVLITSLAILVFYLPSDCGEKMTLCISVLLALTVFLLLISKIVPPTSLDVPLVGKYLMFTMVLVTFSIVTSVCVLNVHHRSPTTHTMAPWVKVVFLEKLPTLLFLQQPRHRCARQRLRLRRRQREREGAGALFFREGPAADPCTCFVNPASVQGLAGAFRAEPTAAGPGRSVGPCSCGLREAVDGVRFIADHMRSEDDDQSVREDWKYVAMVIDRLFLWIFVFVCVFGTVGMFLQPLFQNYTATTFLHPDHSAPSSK

Take `c1ccc2c[n+](CCCCCc3cc(CCCCC[n+]4ccc5ccccc5c4)cc(CCCCC[n+]4ccc5ccccc5c4)c3)ccc2c1` [GZ556B, 1,3,5-tris-[5-(2-isoquinolinium)-pentyl]-benzene tribromide]: the inhibition at 0.1 µM amounted to 8.4 ± 7.6% in assay [1], 2.5 ± 1.5% in assay [2] and 28 ± 11% in assay [3].
On the same counts, the results for `Cc1cc(C)c[n+](CCCCCc2cc(CCCCC[n+]3cc(C)cc(C)c3)cc(CCCCC[n+]3cc(C)cc(C)c3)c2)c1` [GZ557A, 1,3,5-tris-[5-(3,5-lutidinium)-pentyl]-benzene tribromide] are 11 ± 2.9%, 6.5 ± 3.6% and 39 ± 18%.
On the same counts, the results for `Cc1cc[n+](CCCCCc2cc(CCCCC[n+]3ccc(C)c(C)c3)cc(CCCCC[n+]3ccc(C)c(C)c3)c2)cc1C` [GZ557B, 1,3,5-tris-[5-(3,4-lutidinium)-pentyl]-benzene tribromide] are 9.3 ± 4.1%, 0.2 ± 0.2% and 50 ± 21%.
On the same counts, the results for `c1ccc(-c2ccc[n+](CCCCCc3cc(CCCCC[n+]4cccc(-c5ccccc5)c4)cc(CCCCC[n+]4cccc(-c5ccccc5)c4)c3)c2)cc1` [GZ558A, 1,3,5-tris-[5-(3-phenyl-pyridinium)-pentyl]-benzene tribromide] are 14 ± 5.8%, 19 ± 1.7% and 6 ± 5%.
As to `CCCCc1ccc[n+](CCCCCc2cc(CCCCC[n+]3cccc(CCCC)c3)cc(CCCCC[n+]3cccc(CCCC)c3)c2)c1` [GZ558B, 1,3,5-tris-[5-(3-butyl-pyridinium)-pentyl]-benzene tribromide], the inhibition at 0.1 µM in assay [1] was 6.2 ± 4%; in assay [2], 4.4 ± 3.3%; in assay [3], 68 ± 14%.
